{Cy3} = Cy3 fluorescent dye label
Columns and labels:
[1] = system: Primary rat hippocampal neurons; assay: Uptake of Cy3-ONs by hippocampal neurons; assay type: cell-based
Protocol: Hippocampal Cell Culture. Primary cultures of hippocampal neurons were prepared from neonatal rat pups (P1 or P2) as previously described (Dubinsky, 1993). Neurons were plated onto 22-mm square glass coverslips coated with collagen and polylysine, at a density of 150,000 cells per coverslip. Neurons were cultured for 24-30 hours in minimum essential medium (MEM) with 10% NUSERUM (Collaborative Research) to increase attachment to the glass substrate, after which the growing medium was replaced with Neurobasal medium with B27 supplements (Life Technologies, Rockville, Md.). Fluorodeoxyuridine (15 μg/ml) was added to restrict the growth of non-neuronal cells. Cultures were maintained at 37° C. in a humidified atmosphere containing 5% CO2 for 6-9 days before use.
Uptake of Cy3-ONs by hippocampal neurons. […] Uninternalized ONs, liposomes or complexes were removed by several washes with L15 (Leibovitz's) medium. Cells were then fixed in 4% paraformaldehyde for 15 minutes at room temperature. For low temperature studies, neurons were incubated at 4° C. with AL-Cy3ONs for 10 minutes and then fixed. The cells were imaged immediately after fixation to avoid a potential redistribution of ONs (Grzanna et al., 1998).
(§1) Confocal Microscopy and Image Analysis. Imaging was performed on a Leica TCS 4D confocal microscope (Deerfield, Ill.) equipped with a Mercury/Xenon lamp and argon/krypton laser. Cells were excited using the 488 nm laser line to detect Oregon Green 488-Transferrin and Alexa488-Dextran, and the emitted fluorescence was collected using a 515 long-pass filter. The 568 nm laser line was used to excite Cy3 and N—Rh-DOPE (LP590 emission). Cells were imaged at a plane midway between the substrate-attached plasma membrane and the top of the cell, such that neuronal nuclei were clearly identifiable. In some cases, the entire volume of the cell was scanned in 0.5 μm increments. Optimal images were obtained by averaging 16 images in the line-scan mode at the same fixed gains for all experiments. […]

[2] = system: Chinese hamster ovary cell line (CHO-K1); assay: Uptake of Cy3-ONs by CHO-K1 cells; assay type: cell-based; conditions: 1 μM Cy3-ONs, 1 h at 37° C.
Protocol: (§2) The ability of this delivery system to deliver DNA to cell types other than neurons was investigated by studying uptake of Cy3-oligonucleotides delivered by anionic DOPC/DOPG liposomes in cells derived from a variety of tissues. CHO, HeLa, HuH-7, MDCK and MEF-1 cells all avidly internalized AL-Cy3ONs within 1 h of incubation (FIG. 2). Uptake of AL-Cy3ONs occurred in the presence of serum in the culture medium. Similar to the uniform uptake seen in primary neurons, Cy3 fluorescence was visible in almost all cells exposed to AL-Cy3ONs in all cell types studied (Table 1). On the other hand, uptake of Cy3ON either without a delivery vector or complexed to cationic DC-Chol/DOPE liposomes was cell type-dependent, ranging from ˜5% in MDCK cells to ˜50% in HeLa cells (Table 1).

[3] = system: Human cervical carcinoma (HeLa); assay: Uptake of Cy3-ONs by HeLa cells; assay type: cell-based; conditions: 1 μM Cy3-ONs, 1 h at 37° C.
Protocol: as §2

Human hepatoma (Huh-7) = assay: Uptake of Cy3-ONs by Huh-7 cells; assay type: cell-based; conditions: 1 μM Cy3-ONs, 1 h at 37° C.
Protocol: as §2

[4] = system: Canine kidney cell line (MDCK); assay: Uptake of Cy3-ONs by MDCK cells; assay type: cell-based; conditions: 1 μM Cy3-ONs, 1 h at 37° C.
Protocol: as §2

[5] = system: Mouse embryonic fibroblasts (MEF-1); assay: Uptake of Cy3-ONs by LRP-expressing MEF-1 cells; assay type: cell-based; conditions: 1 μM Cy3-ONs, 1 h at 37° C.
Protocol: as §2
The endocytosis of AL-Cy3ONs in immortalized mouse embryonic fibroblast cell lines that expressed LRP (MEF-1) was compared to endocytosis of AL-Cy3ONs in immortalized mouse embryonic fibroblast cell lines that lacked the receptor (PEA-13).

hippocampal neurons [6] = assay: Colocalization with transferrin (early and recycling endosomes); assay type: cell-based, rat; conditions: delivered in anionic liposomes
Protocol: (§3) Colocalization of Lipids and Oligonucleotides with Transferrin and Dextran. Intracellular fates of endocytosed liposomes and ONs were determined by comparing their intracellular distributions with that of Oregon Green 488-Transferrin (OG-Tf) and Alexa488-dextran (Molecular Probes, Eugene, Oreg.) used as markers for the recycling and lysosomal compartments, respectively. Neurons were incubated with AL-Cy3ONs and either 100 μg/ml OG-Tf, for 30 minutes, 1 hour or 3 hours; or with 1 mg/ml Alexa488-dextran for 3 hours. For the lipid transport experiments, neurons were incubated with liposomes labeled with N—Rh-DOPE and either OG-TF, for 30 minutes, 1 hour, or 3 hours; or with 1 mg/ml Alexa-dextran for 3 hours. In another set of experiments, neurons were incubated with AL-Cy3ONs for 30 minutes, rinsed and chased with 1 mg/ml Alexa 488 dextran for 3 hours. Cells were rinsed and fixed for imaging as described above.
Confocal Microscopy and Image Analysis. Imaging was performed on a Leica TCS 4D confocal microscope (Deerfield, Ill.) equipped with a Mercury/Xenon lamp and argon/krypton laser. Cells were excited using the 488 nm laser line to detect Oregon Green 488-Transferrin and Alexa488-Dextran, and the emitted fluorescence was collected using a 515 long-pass filter. The 568 nm laser line was used to excite Cy3 and N—Rh-DOPE (LP590 emission). Cells were imaged at a plane midway between the substrate-attached plasma membrane and the top of the cell, such that neuronal nuclei were clearly identifiable. In some cases, the entire volume of the cell was scanned in 0.5 μm increments. Optimal images were obtained by averaging 16 images in the line-scan mode at the same fixed gains for all experiments. All fluorescent images presented in figures were equally contrast enhanced using ADOBE PHOTOSHOP (Adobe, Mountain View, Calif.).
(§4) All image analysis was performed using the METAMORPH Imaging System software (Universal Imaging, Downington, Pa.). The cell outlines for each set of double-labeled fields were traced out manually in the corresponding differential interference contrast image and then used to mask the fluorescence images. In each cell, the total fluorescence intensity was measured and the percent of Cy3 label or rhodamine label that colocalized with transferrin or dextran was calculated.

hippocampal neurons [7] = assay: Colocalization with dextran (late endosomes and lysosomes); assay type: cell-based, rat; conditions: 3 h, delivered in anionic liposomes
Protocol: as §3
as §1, with “increments.” for “increments. Optimal images were obtained by averaging 16 images in the line-scan mode at the same fixed gains for all experiments.”
as §4

Question: For “Cy3-ONs without delivery system: 18-mer 5′-CTGTGAATCCTCCATGAC-3′ (SEQ ID NO:2), targets rat p53 mRNA, labeled at the 5′-end with Cy3 (DNA, 5' {Cy3}, backbone not given here; listed as Rattus norvegicus)”, which “Uptake of Cy3-ONs by neurons” value ([1]; 1 μM Cy3-ONs, 1 h, serum-containing medium) is on record?
Answer: taken up by a low percentage of neurons

Question: What about the “Neuronal Cy3 fluorescence” value ([1]; 2 μM Cy3ONs, 30 minutes at 37° C.) of the same substance?
Answer: low level of diffuse cellular fluorescence in only a small percent of cells

Question: And the “Percent of cells with intracellular Cy3 fluorescence” value (“Percent of cells” below) ([1]; Primary rat hippocampal neurons, 1 μM Cy3-ONs, 1 h at 37° C.)?
Answer: 6%

Question: And the “Percent of cells” value [2]?
Answer: 17%

Question: What about the “Percent of cells” value [3] of the same substance?
Answer: 51.5%

Question: And the “Percent of cells” value ([3]; listed as Cy3ON without a delivery vector)?
Answer: ~50%

Question: And the “Percent of cells” value (Human hepatoma (Huh-7))?
Answer: 18.3%

Question: What about the “Percent of cells” value [4] of the same substance?
Answer: ~5%

Question: And the “Percent of cells” value [5]?
Answer: 20%

Question: And the “Percent colocalization with Transferrin” value (hippocampal neurons [6]; 30 min, listed as Cy3ON)?
Answer: 14.86 ± 1%

Question: What about the “Percent colocalization with Transferrin” value (hippocampal neurons [6]; 30 min, listed as Cy3ONs) of the same substance?
Answer: 15%

Question: What about the “Percent colocalization with Transferrin” value (hippocampal neurons [6]; 1 h) of the same substance?
Answer: 22.67 ± 1.7%

Question: What about the “Percent colocalization with Transferrin” value (hippocampal neurons [6]; 3 h, listed as Cy3ON) of the same substance?
Answer: 24.62 ± 2%

Question: And the “Percent colocalization with Transferrin” value (hippocampal neurons [6]; 3 h, listed as Cy3ONs)?
Answer: ≤ 25%

Question: And the “Percent colocalization with Dextran” value (hippocampal neurons [7]; listed as Cy3ON)?
Answer: 20.13 ± 1.8%

Question: What about the “Percent colocalization with Dextran” value (hippocampal neurons [7]; listed as Cy3ONs) of the same substance?
Answer: 20%

Source: US20030026831A1, “Anionic liposomes for delivery of bioactive agents” (priority 2001, published 2003)
